What was measured:
LHGFR0N0C = target: T1, LHGFR0N0C; test: FRET titration of purified sensor with L-2-HG in 50 mM Tris-HCl pH 7.4, Venus/mTFP emission ratio (excitation 430 nm, emission 528/485 nm), Hill-type fit.; format: binding; conditions: SD, n = 3; read-out: apparent dissociation constant (Kd)
T1 construct: FRET sensor: full-length LhgR between mTFP (N-terminus) and Venus (C-terminus); pETDuet-1, Ni-chelating purification
Procedure: (§1) Purified L-2-HG biosensors and different compounds were diluted by 50 mM Tris-HCl buffer (pH 7.4), mixed together in a black 96-well plate at a volume ratio of 3:1, and the fluorescence intensities were measured using an EnSight microplate reader (PerkinElmer, USA) with excitation at 430 nm, emission at 485 nm (mTFP) and 528 nm (Venus). The dose-response curves were fitted by OriginPro 2016 software (OriginLab) according to the following formula:1 R=Rmax+Rmin−Rmax/1+([L-2-HG]/Kd)^p where R, Rmin, and Rmax refer to the emission ratio of Venus to mTFP, ratio in the absence of L-2-HG, and ratio at saturation with L-2-HG, respectively. The [L-2-HG], Kd, and p refer to the L-2-HG concentration, apparent dissociation constant, and Hill slope, respectively. Emission spectra were recorded at 430 nm excitation, in steps of 2 nm. Excitation spectra were recorded using emission at 550 nm, excitation from 380 to 535 nm in steps of 2 nm.
(§2) Fig. 3 Design and optimization of the LHGFR. a Schematic representation of the predicted conformational change of LhgR-based L-2-HG biosensor LHGFR in the absence or presence of L-2-HG. […] The emission ratio of Venus to mTFP increased (430 nm excitation) after L-2-HG binding. c Heap map of the truncating the N-terminal and C-terminal amino acids of LhgR to ∆Rmax. […] The emission ratio changes of both biosensors were measured in the presence of 240 μM D-lactate, L-lactate, L-2-HG, D-2-HG, or different intermediates of the TCA cycle and L-lysine catabolism. g, h Reversal of L-2-HG binding with LHGFR by conversion of L-2-HG to 2-KG. […] All data shown are means ± s.d. (n = 3 independent experiments).
(§3) Supplementary Figure 6 Dose-response curves of purified LHGFR variants truncated three to seven C-terminal amino acids in LhgR for L-2-HG. Dose-response curves of LHGFR0N3C […]
(§4) concentrations (10 nM to 2 mM) of L-2-HG were indicated. The maximum ratio change (∆Rmax), apparent dissociation constant (Kd), and R2 were shown in each figure. All data shown are means ± s.d. (n = 3 independent experiments). Source data are provided as a […]

LHGFR0N3C [1] = target: T2, LHGFR0N3C; test: as above; format: binding; conditions: SD, n = 3; read-out: apparent dissociation constant (Kd)
T2 construct: FRET sensor: LhgR truncated by three C-terminal amino acids between mTFP (N-terminus) and Venus (C-terminus)
Procedure: as §1, §2, §3, §4

LHGFR0N7C [2] = target: T3, LHGFR0N7C; test: as above; format: binding; conditions: SD, n = 3; read-out: apparent dissociation constant (Kd)
T3 construct: FRET sensor: LhgR truncated by seven C-terminal amino acids between mTFP (N-terminus) and Venus (C-terminus)
Procedure: as §1, §2, §3, §4

LHGFR0N3C [3] = target: T2, LHGFR0N3C; test: FRET titration of purified sensor with L-2-HG (10 nM to 2 mM) added to filtered human serum, sensor in 50 mM Tris-HCl pH 7.4 mixed 3:1, Venus/mTFP emission ratio.; format: binding; conditions: SD, n = 3
Procedure: as §1, with “The [L-2-HG], Kd, and p refer to the L-2-HG concentration, apparent dissociation constant, and Hill slope, respectively.” left out
(§5) In order to test the ability of LHGFR for quantitative analysis L-2-HG in different biological samples, purified LHGFR was diluted by 50 mM Tris-HCl (pH 7.4), while varying concentrations of L-2-HG were added into the serum and urine of a healthy adult and bacteria culture medium and filtered through a 0.22 μm filter, respectively. […] The mixtures of purified LHGFR and L-2-HG in different biological samples were then incubated in a black 96-well plate at a volume ratio of 3:1, and the emission ratios were determined using an EnSight microplate reader. […]

LHGFR0N7C [4] = target: T3, LHGFR0N7C; test: as above; format: binding; conditions: SD, n = 3
Procedure: as §1, with “The [L-2-HG], Kd, and p refer to the L-2-HG concentration, apparent dissociation constant, and Hill slope, respectively.” left out
as §5

LHGFR0N3C [5] = target: T2, LHGFR0N3C; test: FRET titration of purified sensor with L-2-HG (10 nM to 2 mM) added to human urine diluted with an equal volume of 50 mM Tris-HCl pH 7.4, mixed 3:1, Venus/mTFP emission ratio.; format: binding; conditions: SD, n = 3
Procedure: as §1, with “The [L-2-HG], Kd, and p refer to the L-2-HG concentration, apparent dissociation constant, and Hill slope, respectively.” left out
as §5

LHGFR0N7C [6] = target: T3, LHGFR0N7C; test: as above; format: binding; conditions: SD, n = 3
Procedure: as §1, with “The [L-2-HG], Kd, and p refer to the L-2-HG concentration, apparent dissociation constant, and Hill slope, respectively.” left out
as §5

LHGFR0N3C [7] = target: T2, LHGFR0N3C; test: FRET titration of purified sensor with L-2-HG (10 nM to 2 mM) added to filtered bacterial culture medium, sensor in 50 mM Tris-HCl pH 7.4 mixed 3:1, Venus/mTFP emission ratio.; format: binding; conditions: SD, n = 3
Procedure: as §1, with “The [L-2-HG], Kd, and p refer to the L-2-HG concentration, apparent dissociation constant, and Hill slope, respectively.” left out
as §5

LHGFR0N7C [8] = target: T3, LHGFR0N7C; test: as above; format: binding; conditions: SD, n = 3
Procedure: as §1, with “The [L-2-HG], Kd, and p refer to the L-2-HG concentration, apparent dissociation constant, and Hill slope, respectively.” left out
as §5

LHGFR0N3C [9] = tested on: T2, LHGFR0N3C; test: Emission ratio of sensor in living carbon-starved E. coli BL21(DE3) versus exogenous L-2-HG (100 nM to 10 mM) at 60 min, 37 °C.; format: cell-based; conditions: read-out: apparent Kd of LHGFR0N3C expressed in E. coli BL21(DE3); SD, n = 3
Procedure: E. coli BL21(DE3) strains harboring either pETDuet-LHGFR0N3C, pETDuet-LHGFR0N7C, or pETDuet-LHGFR3N7C were grown to an OD600 of 0.6 in LB medium at 37 °C, after which the cells were induced overnight in the presence of 1 mM IPTG at 16 °C.
To characterize the sensitivity and specificity of LHGFR expressed in E. coli BL21(DE3), 90 μL cell suspensions following 8 h carbon starvation were mixed with 10 μL increasing concentrations of L-2-HG or other compounds, and then added into a black 96-well plate (total 100 μL/per well), the fluorescence intensities were determined using an EnSight microplate reader (PerkinElmer, USA) and the following instrument settings: excitation at 430 nm, emission at 485 nm (mTFP) and 528 nm (Venus), time intervals of 5 min, the temperature at 37 °C, and shake at 180 rpm. […] In order to analyze functions of CsiD and LhgO in endogenous L-2-HG anabolism and catabolism during carbon starvation, pETDuet-LHGFR0N3C, pETDuet-LHGFR0N7C, or pETDuet-LHGFR3N7C was transferred into E. coli MG1655(DE3) and its variants, and the assays were performed using the same procedure.

LHGFR0N3C [10] = tested on: T2, LHGFR0N3C; test: Emission ratio of cytosolic sensor in HEK293FT cells permeabilized with 10 uM digitonin versus L-2-HG (10 nM to 10 mM) in Hank's balanced salt solution with 20 mM HEPES.; format: cell-based; conditions: read-out: apparent Kd of LHGFR0N3C expressed in HEK293FT cells; SD, n = 3
Procedure: To characterize the sensitivity and specificity of LHGFR expressed in HEK293FT cells, cells were trypsinized 48 h following transfection and suspended in 1× Hank’s balanced salt solution supplemented with 20 mM HEPES. […] Digitonin at a concentration of 10 μM was used to induce cell permeabilization and deplete intracellular L-2-HG for in vivo response curves construction. Then, the fluorescence intensities were determined by a SpectraMax i3 fluorescence plate reader (Molecular Devices, USA) with excitation at 430 nm and emission at 485 nm (mTFP) and 528 nm (Venus). Basal L-2-HG concentration in HEK293FT cells under physiological conditions was determined by substituting the emission ratios of non-permeabilized HEK293FT cells into the calibrated in vivo response curves.

O=C(O)CC[C@H](O)C(=O)O [L-2-HG, L-2-hydroxyglutarate]
Kd (LHGFR0N0C): 2.74 µM | Kd (LHGFR0N3C [1]): 29.3 µM | Kd (LHGFR0N7C [2]): 7.22 µM | Kd (LHGFR0N3C [3]): 27.8 µM | Kd (LHGFR0N7C [4]): 8.35 µM | Kd (LHGFR0N3C [5]): 29.5 µM | Kd (LHGFR0N7C [6]): 7.77 µM | Kd (LHGFR0N3C [7]): 36.9 µM | Kd (LHGFR0N7C [8]): 6.65 µM | Kd (LHGFR0N3C [9]): 892 µM | Kd (LHGFR0N3C [10]): 43.8 µM

From PMC8206213, “An L-2-hydroxyglutarate biosensor based on specific transcriptional regulator LhgR” (Nature Communications, 2021)
